According to the kinase profiling compilation of Christmann-Franck et al. (2016):

Experiments:
Assay in all cases: radiometric filter-binding kinase assay, Kinase HotSpot
Conditions in all cases: compound 0.5 µM; ATP 10 µM
AKT2 (human) = AKT2 (human) (UniProt P31751)
ALK (human) = ALK (human) (UniProt Q9UM73)
BRSK1 (human) = BRSK1 (human) (UniProt Q8TDC3)
CDK5 CDK5R1 p35 (human) = CDK5 CDK5R1 p35 (human) (UniProt Q00535+Q15078)
CDK6 CCND1 (human) = CDK6 CCND1 (human) (UniProt Q00534+P24385)
CDK9 CCNT1 (human) = CDK9 CCNT1 (human) (UniProt P50750+O60563)
CSNK1G1 (human) = CSNK1G1 (human) (UniProt Q9HCP0)
FES (human) = FES (human) (UniProt P07332)
FGFR1 (human) = FGFR1 (human) (UniProt P11362)
[1] = tested on: FLT4 (human), P35916 [Q890H]
GRK6 (human) = GRK6 (human) (UniProt P43250)
GRK6 (human), sequence (P43250 whole entry, looked up): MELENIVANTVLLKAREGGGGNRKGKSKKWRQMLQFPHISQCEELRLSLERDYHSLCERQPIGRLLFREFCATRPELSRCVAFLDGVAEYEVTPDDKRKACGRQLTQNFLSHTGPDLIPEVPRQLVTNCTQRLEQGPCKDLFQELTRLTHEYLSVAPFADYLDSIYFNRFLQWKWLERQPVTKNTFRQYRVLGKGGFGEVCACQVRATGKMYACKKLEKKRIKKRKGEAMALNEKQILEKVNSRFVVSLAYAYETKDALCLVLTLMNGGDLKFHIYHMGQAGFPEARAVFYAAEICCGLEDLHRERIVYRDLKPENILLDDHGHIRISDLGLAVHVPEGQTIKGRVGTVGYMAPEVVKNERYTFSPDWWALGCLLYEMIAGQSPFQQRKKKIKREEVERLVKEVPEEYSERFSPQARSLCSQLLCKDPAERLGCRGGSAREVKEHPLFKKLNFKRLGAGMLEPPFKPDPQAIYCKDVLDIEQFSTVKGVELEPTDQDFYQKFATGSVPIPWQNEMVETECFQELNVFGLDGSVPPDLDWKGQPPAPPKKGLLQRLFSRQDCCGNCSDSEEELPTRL

GSG2 (human) = GSG2 (human) (UniProt Q8TF76)
GSK3A (human) = GSK3A (human) (UniProt P49840)
IGF1R (human) = IGF1R (human) (UniProt P08069)
IGF1R (human), sequence (P08069 whole entry, looked up): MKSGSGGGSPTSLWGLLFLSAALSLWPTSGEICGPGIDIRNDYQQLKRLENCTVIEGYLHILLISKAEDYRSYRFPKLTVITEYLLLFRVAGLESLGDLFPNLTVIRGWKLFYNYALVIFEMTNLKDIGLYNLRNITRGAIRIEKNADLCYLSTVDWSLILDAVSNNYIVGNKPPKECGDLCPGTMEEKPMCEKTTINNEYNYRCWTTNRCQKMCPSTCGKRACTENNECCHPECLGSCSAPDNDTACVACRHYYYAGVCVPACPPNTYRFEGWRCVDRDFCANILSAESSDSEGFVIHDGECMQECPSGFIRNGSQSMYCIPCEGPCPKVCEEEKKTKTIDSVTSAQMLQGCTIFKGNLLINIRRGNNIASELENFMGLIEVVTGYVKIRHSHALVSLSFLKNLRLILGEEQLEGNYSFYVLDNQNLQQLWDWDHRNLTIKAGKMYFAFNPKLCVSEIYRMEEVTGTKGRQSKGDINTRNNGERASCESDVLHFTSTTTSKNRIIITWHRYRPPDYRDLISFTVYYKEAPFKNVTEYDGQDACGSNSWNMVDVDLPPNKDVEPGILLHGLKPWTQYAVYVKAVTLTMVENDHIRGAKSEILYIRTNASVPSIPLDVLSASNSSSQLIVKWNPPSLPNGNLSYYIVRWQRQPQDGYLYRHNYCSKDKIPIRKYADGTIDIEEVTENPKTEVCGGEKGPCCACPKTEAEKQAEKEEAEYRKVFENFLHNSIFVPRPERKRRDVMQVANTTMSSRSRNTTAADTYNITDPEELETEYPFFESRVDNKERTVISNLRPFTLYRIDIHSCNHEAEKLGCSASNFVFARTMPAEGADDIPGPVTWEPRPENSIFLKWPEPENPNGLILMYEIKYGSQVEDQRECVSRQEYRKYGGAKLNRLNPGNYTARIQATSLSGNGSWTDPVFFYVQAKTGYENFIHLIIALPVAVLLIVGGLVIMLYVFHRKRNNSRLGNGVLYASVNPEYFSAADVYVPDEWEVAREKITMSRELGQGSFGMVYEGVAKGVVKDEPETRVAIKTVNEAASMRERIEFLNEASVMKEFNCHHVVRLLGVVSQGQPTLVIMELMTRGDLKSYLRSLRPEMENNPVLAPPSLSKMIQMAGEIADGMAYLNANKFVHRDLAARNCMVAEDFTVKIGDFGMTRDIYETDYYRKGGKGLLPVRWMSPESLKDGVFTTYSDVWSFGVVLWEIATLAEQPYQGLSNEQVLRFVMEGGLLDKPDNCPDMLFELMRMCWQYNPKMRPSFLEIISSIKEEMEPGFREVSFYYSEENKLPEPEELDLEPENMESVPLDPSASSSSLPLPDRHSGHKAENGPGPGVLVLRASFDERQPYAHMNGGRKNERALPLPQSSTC

LTK (human) = LTK (human) (UniProt P29376)
MAP2K1 (human) = MAP2K1 (human) (UniProt Q02750)
MAP2K2 (human) = MAP2K2 (human) (UniProt P36507)
MAP3K11 (human) = MAP3K11 (human) (UniProt Q16584)
MAPK13 (human) = MAPK13 (human) (UniProt O15264)
MST1R (human) = MST1R (human) (UniProt Q04912)
NEK3 (human) = NEK3 (human) (UniProt P51956)
NEK6 (human) = NEK6 (human) (UniProt Q9HC98)
NTRK2 (human) = NTRK2 (human) (UniProt Q16620)
NTRK2 (human), sequence (Q16620 whole entry, looked up): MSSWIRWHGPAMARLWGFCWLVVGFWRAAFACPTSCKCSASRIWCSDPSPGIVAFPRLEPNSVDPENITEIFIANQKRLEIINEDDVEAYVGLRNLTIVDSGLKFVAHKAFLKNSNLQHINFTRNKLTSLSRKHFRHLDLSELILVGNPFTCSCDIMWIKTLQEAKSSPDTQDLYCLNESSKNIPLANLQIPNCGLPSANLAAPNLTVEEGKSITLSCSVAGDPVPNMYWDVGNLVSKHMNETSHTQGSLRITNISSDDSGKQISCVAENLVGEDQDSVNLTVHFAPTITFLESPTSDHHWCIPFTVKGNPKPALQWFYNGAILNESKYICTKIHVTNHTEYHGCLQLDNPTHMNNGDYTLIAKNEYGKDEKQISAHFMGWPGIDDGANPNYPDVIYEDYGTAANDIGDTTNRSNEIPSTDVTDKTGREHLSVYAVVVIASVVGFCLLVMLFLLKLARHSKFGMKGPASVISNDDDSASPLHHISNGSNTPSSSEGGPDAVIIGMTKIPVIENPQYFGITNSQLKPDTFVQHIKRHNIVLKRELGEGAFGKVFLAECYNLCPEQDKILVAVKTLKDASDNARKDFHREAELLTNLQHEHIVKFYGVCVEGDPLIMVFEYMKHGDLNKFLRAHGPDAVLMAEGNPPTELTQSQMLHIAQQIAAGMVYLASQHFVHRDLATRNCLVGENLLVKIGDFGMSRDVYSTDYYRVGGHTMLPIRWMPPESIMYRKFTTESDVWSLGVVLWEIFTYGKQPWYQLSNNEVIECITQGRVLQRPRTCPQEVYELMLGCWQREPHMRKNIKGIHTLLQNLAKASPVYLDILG

PIM2 (human) = PIM2 (human) (UniProt Q9P1W9)
PIM2 (human), sequence (Q9P1W9 whole entry, looked up): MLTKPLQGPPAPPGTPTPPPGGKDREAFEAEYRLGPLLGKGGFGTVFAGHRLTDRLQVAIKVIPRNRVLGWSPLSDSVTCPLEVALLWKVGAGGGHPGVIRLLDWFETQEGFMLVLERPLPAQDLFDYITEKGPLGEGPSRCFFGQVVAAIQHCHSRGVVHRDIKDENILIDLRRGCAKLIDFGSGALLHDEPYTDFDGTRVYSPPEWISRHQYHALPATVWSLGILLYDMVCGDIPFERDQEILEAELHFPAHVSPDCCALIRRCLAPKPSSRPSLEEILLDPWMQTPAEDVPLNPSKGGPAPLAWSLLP

PIM3 (human) = PIM3 (human) (UniProt Q86V86)
PKN2 (human) = PKN2 (human) (UniProt Q16513)
PRKCA (human) = PRKCA (human) (UniProt P17252)
PRKD3 (human) = PRKD3 (human) (UniProt O94806)
RPS6KA3 KD1 KD2 (human) = RPS6KA3 KD1 KD2 (human) (UniProt P51812)
RPS6KA5 KD2 (human) = RPS6KA5 KD2 (human) (UniProt O75582)
SIK2 (human) = SIK2 (human) (UniProt Q9H0K1)
STK16 (human) = STK16 (human) (UniProt O75716)
STK17A (human) = STK17A (human) (UniProt Q9UEE5)
STK25 (human) = STK25 (human) (UniProt O00506)
STK33 (human) = STK33 (human) (UniProt Q9BYT3)
STK4 (human) = STK4 (human) (UniProt Q13043)
TAOK2 (human) = TAOK2 (human) (UniProt Q9UL54)
TNK2 (human) = TNK2 (human) (UniProt Q07912)
TSSK1B (human) = TSSK1B (human) (UniProt Q9BXA7)
ULK2 (human) = ULK2 (human) (UniProt Q8IYT8)
VRK1 (human) = VRK1 (human) (UniProt Q99986)
VRK1 (human), sequence (Q99986 whole entry, looked up): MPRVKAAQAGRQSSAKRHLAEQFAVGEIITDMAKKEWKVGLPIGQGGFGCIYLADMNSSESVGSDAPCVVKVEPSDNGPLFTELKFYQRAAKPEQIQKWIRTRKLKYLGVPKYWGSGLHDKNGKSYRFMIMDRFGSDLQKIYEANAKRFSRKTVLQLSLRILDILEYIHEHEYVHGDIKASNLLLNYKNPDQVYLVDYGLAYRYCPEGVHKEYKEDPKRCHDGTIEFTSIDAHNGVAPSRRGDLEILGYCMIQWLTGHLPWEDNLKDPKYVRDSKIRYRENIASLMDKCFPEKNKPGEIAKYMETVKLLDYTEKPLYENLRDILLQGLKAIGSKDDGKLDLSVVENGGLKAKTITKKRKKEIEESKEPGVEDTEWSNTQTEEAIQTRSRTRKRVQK

WEE1 (human) = WEE1 (human) (UniProt P30291)

ALK (human), sequence (Q9UM73 whole entry, looked up): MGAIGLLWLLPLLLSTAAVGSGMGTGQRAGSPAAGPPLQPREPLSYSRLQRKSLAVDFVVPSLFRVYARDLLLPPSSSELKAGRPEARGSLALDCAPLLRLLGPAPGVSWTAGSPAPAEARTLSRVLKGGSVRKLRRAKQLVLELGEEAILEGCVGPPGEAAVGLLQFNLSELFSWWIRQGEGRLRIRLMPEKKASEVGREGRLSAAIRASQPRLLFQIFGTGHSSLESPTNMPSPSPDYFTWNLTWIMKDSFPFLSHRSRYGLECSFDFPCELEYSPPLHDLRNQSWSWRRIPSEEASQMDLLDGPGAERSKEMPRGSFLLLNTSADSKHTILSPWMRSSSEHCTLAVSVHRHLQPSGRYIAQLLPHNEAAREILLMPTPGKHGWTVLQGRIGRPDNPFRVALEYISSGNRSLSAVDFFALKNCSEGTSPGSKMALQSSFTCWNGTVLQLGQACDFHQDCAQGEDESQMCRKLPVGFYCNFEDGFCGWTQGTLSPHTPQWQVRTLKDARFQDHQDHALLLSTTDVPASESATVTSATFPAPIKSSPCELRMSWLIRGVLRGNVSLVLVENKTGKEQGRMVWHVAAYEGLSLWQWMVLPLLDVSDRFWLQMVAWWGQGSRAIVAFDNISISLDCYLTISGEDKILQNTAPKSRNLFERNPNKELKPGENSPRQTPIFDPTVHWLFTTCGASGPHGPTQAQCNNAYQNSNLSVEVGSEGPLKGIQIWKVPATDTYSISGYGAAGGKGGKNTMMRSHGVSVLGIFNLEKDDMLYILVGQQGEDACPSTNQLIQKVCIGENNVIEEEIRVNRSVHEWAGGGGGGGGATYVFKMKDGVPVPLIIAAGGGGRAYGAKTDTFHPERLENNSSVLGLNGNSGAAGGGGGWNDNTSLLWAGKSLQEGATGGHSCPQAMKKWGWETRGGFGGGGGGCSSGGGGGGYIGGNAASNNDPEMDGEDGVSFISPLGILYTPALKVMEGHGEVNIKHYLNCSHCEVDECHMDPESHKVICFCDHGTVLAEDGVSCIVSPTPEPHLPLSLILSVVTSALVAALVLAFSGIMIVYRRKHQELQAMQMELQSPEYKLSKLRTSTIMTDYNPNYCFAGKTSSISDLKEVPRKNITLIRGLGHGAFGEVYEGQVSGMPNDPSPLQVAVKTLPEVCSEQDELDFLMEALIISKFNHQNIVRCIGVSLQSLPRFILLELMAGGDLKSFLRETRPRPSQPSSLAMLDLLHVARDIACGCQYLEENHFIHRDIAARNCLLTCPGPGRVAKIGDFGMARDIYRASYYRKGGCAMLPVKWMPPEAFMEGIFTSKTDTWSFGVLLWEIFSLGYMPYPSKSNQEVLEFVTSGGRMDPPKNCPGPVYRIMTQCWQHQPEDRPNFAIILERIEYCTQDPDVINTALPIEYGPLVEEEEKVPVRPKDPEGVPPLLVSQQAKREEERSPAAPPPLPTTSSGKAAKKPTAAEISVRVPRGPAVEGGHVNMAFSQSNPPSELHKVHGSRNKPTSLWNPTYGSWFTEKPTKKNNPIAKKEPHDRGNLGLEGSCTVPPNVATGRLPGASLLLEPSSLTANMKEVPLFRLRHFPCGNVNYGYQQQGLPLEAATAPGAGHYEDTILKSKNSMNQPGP

`N#Cc1c[nH]c2c[nH]/c(=N\Cc3cccnc3)cc2/c1=N\c1ccc(F)c(Cl)c1` showed a residual activity (AKT2 (human)) of 101%, a residual activity (ALK (human)) of 107% and a residual activity (BRSK1 (human)) of 94.5%. It also gave a residual activity (CDK5 CDK5R1 p35 (human)) of 80.4%, a residual activity (CDK6 CCND1 (human)) of 92.2% and a residual activity (CDK9 CCNT1 (human)) of 91.2%. It also gave a residual activity (CSNK1G1 (human)) of 87%, a residual activity (FES (human)) of 108% and a residual activity (FGFR1 (human)) of 83.4%. It also gave a residual activity [1] of 96.2%, a residual activity (GRK6 (human)) of 106% and a residual activity (GSG2 (human)) of 82.5%. The residual activity (GSK3A (human)) was 88.5%, the residual activity (IGF1R (human)) was 93.8% and the residual activity (LTK (human)) was 95.6%. The residual activity (MAP2K1 (human)) was 86.2%, the residual activity (MAP2K2 (human)) was 105% and the residual activity (MAP3K11 (human)) was 89%. It also gave a residual activity (MAPK13 (human)) of 101%, a residual activity (MST1R (human)) of 89.6% and a residual activity (NEK3 (human)) of 56%. The residual activity (NEK6 (human)) was 104%, the residual activity (NTRK2 (human)) was 101% and the residual activity (PIM2 (human)) was 101%. For the same molecule, the residual activity (PIM3 (human)) was 85%, the residual activity (PKN2 (human)) was 85.9% and the residual activity (PRKCA (human)) was 89.7%. The residual activity (PRKD3 (human)) was 90.4%, the residual activity (RPS6KA3 KD1 KD2 (human)) was 99.1% and the residual activity (RPS6KA5 KD2 (human)) was 102%. The residual activity (SIK2 (human)) was 97.6%, the residual activity (STK16 (human)) was 93.8% and the residual activity (STK17A (human)) was 79.6%. The residual activity (STK25 (human)) was 95.6%, the residual activity (STK33 (human)) was 87.4% and the residual activity (STK4 (human)) was 100%. It also gave a residual activity (TAOK2 (human)) of 86.1%, a residual activity (TNK2 (human)) of 89.9% and a residual activity (TSSK1B (human)) of 84.4%. For the same molecule, the residual activity (ULK2 (human)) was 102%, the residual activity (VRK1 (human)) was 99.2% and the residual activity (WEE1 (human)) was 74.3%.

Molecule `COc1cc2ncnc(Nc3ccc(OCc4ccccc4)cc3)c2cc1OC` has a residual activity (AKT2 (human)) of 101%, a residual activity (ALK (human)) of 103% and a residual activity (BRSK1 (human)) of 103%. The residual activity (CDK5 CDK5R1 p35 (human)) was 103%, the residual activity (CDK6 CCND1 (human)) was 96.7% and the residual activity (CDK9 CCNT1 (human)) was 94.5%. The residual activity (CSNK1G1 (human)) was 90.6%, the residual activity (FES (human)) was 97% and the residual activity (FGFR1 (human)) was 91.3%. It also gave a residual activity [1] of 98.9%, a residual activity (GRK6 (human)) of 104% and a residual activity (GSG2 (human)) of 86.2%. For the same molecule, the residual activity (GSK3A (human)) was 104%, the residual activity (IGF1R (human)) was 102% and the residual activity (LTK (human)) was 98.6%. It also gave a residual activity (MAP2K1 (human)) of 94.7%, a residual activity (MAP2K2 (human)) of 98.5% and a residual activity (MAP3K11 (human)) of 92.2%. It also gave a residual activity (MAPK13 (human)) of 103%, a residual activity (MST1R (human)) of 106% and a residual activity (NEK3 (human)) of 99.1%. The residual activity (NEK6 (human)) was 97.6%, the residual activity (NTRK2 (human)) was 92.5% and the residual activity (PIM2 (human)) was 97.6%. The residual activity (PIM3 (human)) was 119%, the residual activity (PKN2 (human)) was 94.1% and the residual activity (PRKCA (human)) was 93.9%. For the same molecule, the residual activity (PRKD3 (human)) was 95.3%, the residual activity (RPS6KA3 KD1 KD2 (human)) was 103% and the residual activity (RPS6KA5 KD2 (human)) was 103%. For the same molecule, the residual activity (SIK2 (human)) was 73.7%, the residual activity (STK16 (human)) was 106% and the residual activity (STK17A (human)) was 99.6%. The residual activity (STK25 (human)) was 93.4%, the residual activity (STK33 (human)) was 109% and the residual activity (STK4 (human)) was 101%. For the same molecule, the residual activity (TAOK2 (human)) was 106%, the residual activity (TNK2 (human)) was 53.1% and the residual activity (TSSK1B (human)) was 106%. For the same molecule, the residual activity (ULK2 (human)) was 97%, the residual activity (VRK1 (human)) was 89% and the residual activity (WEE1 (human)) was 94.7%.

Molecule `COc1cc2ncnc(Nc3ccc(Oc4ccccc4)cc3)c2cc1OC` has a residual activity (AKT2 (human)) of 99.4%, a residual activity (ALK (human)) of 109% and a residual activity (BRSK1 (human)) of 98.7%. The residual activity (CDK5 CDK5R1 p35 (human)) was 115%, the residual activity (CDK6 CCND1 (human)) was 95.1% and the residual activity (CDK9 CCNT1 (human)) was 86.7%. The residual activity (CSNK1G1 (human)) was 90%, the residual activity (FES (human)) was 99.6% and the residual activity (FGFR1 (human)) was 85%. For the same molecule, the residual activity [1] was 62.5%, the residual activity (GRK6 (human)) was 99.6% and the residual activity (GSG2 (human)) was 92%. For the same molecule, the residual activity (GSK3A (human)) was 97%, the residual activity (IGF1R (human)) was 102% and the residual activity (LTK (human)) was 98.3%. The residual activity (MAP2K1 (human)) was 85.9%, the residual activity (MAP2K2 (human)) was 105% and the residual activity (MAP3K11 (human)) was 68.5%. It also gave a residual activity (MAPK13 (human)) of 103%, a residual activity (MST1R (human)) of 95.7% and a residual activity (NEK3 (human)) of 98.4%. The residual activity (NEK6 (human)) was 93%, the residual activity (NTRK2 (human)) was 103% and the residual activity (PIM2 (human)) was 107%. It also gave a residual activity (PIM3 (human)) of 96.9%, a residual activity (PKN2 (human)) of 93.6% and a residual activity (PRKCA (human)) of 101%. For the same molecule, the residual activity (PRKD3 (human)) was 95.8%, the residual activity (RPS6KA3 KD1 KD2 (human)) was 97.8% and the residual activity (RPS6KA5 KD2 (human)) was 106%. The residual activity (SIK2 (human)) was 97.7%, the residual activity (STK16 (human)) was 107% and the residual activity (STK17A (human)) was 96.3%. It also gave a residual activity (STK25 (human)) of 109%, a residual activity (STK33 (human)) of 96.3% and a residual activity (STK4 (human)) of 107%. The residual activity (TAOK2 (human)) was 97.8%, the residual activity (TNK2 (human)) was 49% and the residual activity (TSSK1B (human)) was 104%. It also gave a residual activity (ULK2 (human)) of 97.8%, a residual activity (VRK1 (human)) of 98.2% and a residual activity (WEE1 (human)) of 99.1%.
